One data set deals with human neutrophils. The experiment in a line: Human neutrophil respiratory burst (luminol-amplified chemiluminescence). The format is cell-based. The following applies: for IC50: Neutrophil, read-out: pIC50 on C3-induced respiratory burst (converted). On the procedure:
Human peripheral blood neutrophils were isolated from healthy volunteer buffy coats. Initially, the majority of red blood cells were sedimented using 2% w/v dextran sulfate in a 0.9% NaCl solution for 15 min. Next, the upper phase was centrifuged for 10 min at 200g and the supernatant was discarded. The pellet was resuspended in 0.9% NaCl solution, and neutrophils were separated from here using Lymphoprep (STEMCELL Technologies #07851) and density-gradient centrifugation (400g for 30 min). Then, the remaining red blood cells were subjected to hypotonic lysis by addition of 10 mL of sterile water followed by addition of 10 mL of 1.8% NaCl solution. Cell count and viability were determined using trypan blue and a Countess cell counter. Isolated neutrophils were characterized by May–Grunwald–Giemsa staining and immediately used for migration assays or assessment of respiratory burst.
Human neutrophil respiratory burst was assessed via luminol-amplified chemiluminescence. Freshly isolated human neutrophils were seeded in a concentration of 100,000 cells/well in a flat bottom, white 96-well plate (PerkinElmer cat #6005680). Cells were pre-incubated for 30 min with test compounds or vehicles (DMSO) in HBSS in a humidified atmosphere at 37 °C and 5% CO2. Next, luminol (Merck cat #521-31-3) was added to a final concentration of 10 μM. Lastly, the vehicle or the FFA2 agonist, sodium propionate, was added to a final concentration of 1 mM. Immediately thereafter, chemiluminescence was evaluated with an LUMIstar Omega microplate reader (PerkinElmer) where light emission was recorded for 1 s/well every 60 s for 1 h at 37 °C. Experiments were performed in triplicate and analyzed using GraphPad Prism (version 9). Fold response was calculated as the relative luminescence of samples compared to the vehicle control.

The nature of data set [1]: Lipophilicity (logD7.4), octanol/PBS7.4 shake flask. The following applies: 1-octanol/PBS7.4, pH 7.4; mean of two independent experiments. It is filed as physicochemical. As to the method: The assay was performed in duplicates essentially as previously described.[58] A glass vial with a screw cap (8 mL) was charged with the test compound (40 μL, 10 mM in DMSO), PBS7.4 (0.01 M, 1980 μL), and 1-octanol (1980 μL). The vial was capped and sealed with a Parafilm and shaken at 700 rpm using an IKA KS 125 basic shaker for 24 h at 25 °C. The Parafilm was removed, and the sample was allowed to equilibrate for 1 h before analysis. One hundred microliters of the octanol phase was withdrawn and diluted 1:10 with MeOH (+0.1% TFA)/MilliQ water (4:1, v/v) and analyzed by HPLC. The interface was removed, and the PBS7.4 phase analyzed directly by HPLC. All analysis was performed in duplicates, and log D7.4 values were calculated from the peak areas (mAU·min) and adjusted for difference in injection volume and concentration-absorption effects from the solvents, using two calibration points per compound per solvent, and dilution of the octanol phase.

The nature of data set [2]: Kinetic aqueous solubility. It is filed as physicochemical. The following applies: phosphate buffer; kinetic solubility in PBS at pH 7.4 and 25 °C. On the procedure:
Twenty microliters of a 10 mM compound stock solution in DMSO was added to an Eppendorf tube containing 980 μL of phosphate buffer (10 mM, pH = 7.4). The samples were incubated in an Eppendorf Thermomixer (25 °C, 800 rpm) for 24 h. Afterward, the samples were centrifuged for 5 min at 11,000 rpm and the supernatant was filtered (0.2 μm PTFE membrane) before analysis by HPLC. Each compound was analyzed in duplicate. The solubility was calculated from the peak area relative to the reference samples (200 μM in MeOH/MilliQ H2O, 60/40, v/v).

In a further data set the target is T1, hFFA3 (Homo sapiens, UniProt O14843).
T1 construct: expressed in transfected cells; host or cells: Flp-In T-Rex 293 cells, doxycycline-induced
T1 sequence (O14843 1-346): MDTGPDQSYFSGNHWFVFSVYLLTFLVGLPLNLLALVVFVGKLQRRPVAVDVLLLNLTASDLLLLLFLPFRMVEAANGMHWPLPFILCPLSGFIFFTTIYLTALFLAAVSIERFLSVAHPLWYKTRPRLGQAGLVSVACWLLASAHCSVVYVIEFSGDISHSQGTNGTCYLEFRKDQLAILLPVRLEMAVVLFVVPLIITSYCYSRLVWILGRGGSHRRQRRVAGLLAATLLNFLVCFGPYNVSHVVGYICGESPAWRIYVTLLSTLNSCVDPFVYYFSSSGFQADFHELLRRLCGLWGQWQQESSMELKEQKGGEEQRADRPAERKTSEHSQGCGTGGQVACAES
The experiment in a line: cAMP assay, Flp-In T-Rex 293 cells expressing hFFA3-eYFP. The following applies: at 10 μM. It is filed as cell-based. On the procedure:
The hFFA2-eYFP and hFFA3-eYFP Flp-In T-Rex 293 cell lines were maintained in Dulbecco’s modified Eagle mMedium (DMEM, ThermoFisher #11965092) supplemented with 10% (v/v) fetal bovine serum, 100 U/mL penicillin, 100 μg/mL streptomycin, 5 μg/mL blasticidin S, and 200 μg/mL hygromycin B and incubated at 37 °C and 5% CO2 in a humidified incubator. Cells were passaged at 70–80% confluency.
To determine the compound’s ability to activate or inhibit the Gi-coupled FFA2 or FFA3, intracellular cAMP concentrations were determined using Flp-In T-Rex293 cells induced to express hFFA2-eYFP or hFFA3-eYFP. […]
In agonist mode, the next day, the agonist was added in Hank’s balanced salt solution supplemented with 20 mM HEPES, 1 mM MgCl2, and 1 mM CaCl2 at pH 7.4 (HBSS) together with 50 μM 3-isobutyl-1-methylxanthine (IBMX) and 3 μM forskolin. After 25 min pf incubation at rt, agonist-induced intracellular cAMP production was assessed by stopping the reactions and measuring the output with an Envision plate reader using a time-resolved fluorescence protocol, measuring the light emission at 620 and 665 nm.
In antagonist mode, the cells were pre-incubated for 20 min with antagonist test compounds in HBSS together with 50 μM IBMX at rt. […] All analyses were performed in triplicate and analyzed using GraphPad Prism (version 9).
(In general: Changes in cAMP serve as a functional read-out for many G protein-coupled receptors.)

Values after ≈ are worked out from the molar mass of the structure shown. “Also recorded” adds a separate entry of the source.

What is called logD is lipophilicity at a set pH, counting ionised and neutral species. The term solubility denotes the dissolved amount per volume that the medium holds. `O=C(O)C[C@H](Cc1ccc(C(F)(F)F)cc1)NC(=O)Cc1cccc(Cl)c1` [Compound 3, reference compound]: in the data set with human neutrophils (propionate (C3) 1 mM), the IC50 was 46.8 nM. This compound also yielded a logD at 25 h in data set [1] of 1.39 ± 0.01. The solubility at 24 h in data set [2] amounted to 166 µM (≈ 66.4 µg/mL).

Consider `O=C(Cc1cncc(Br)c1)N[C@@H](Cc1ccc(C(F)(F)F)cc1)Cc1nnn[nH]1` [Compound 16w, (S)-3-(2-((1-(1H-Tetrazol-5-yl)-3-(4-(trifluoromethyl)phenyl)propan-2-yl)amino)-2-oxoethyl)-5-bromopyridin-1-ium 2,2,2-trifluoroacetate], for which the “activity on FFA3” value on hFFA3 was “devoid of activity”. In data set [1], the logD at 25 h amounted to 0.71 ± 0.06. The same compound returned a solubility at 24 h in data set [2] of 183 µM (≈ 85.9 µg/mL).

`COc1cccc(CC(=O)N[C@@H](Cc2ccc(C(F)(F)F)cc2)Cc2nnn[nH]2)c1` [Compound 16l, (S)-N-(1-(1H-Tetrazol-5-yl)-3-(4-(trifluoromethyl)phenyl)propan-2-yl)-2-(3-methoxyphenyl)acetamide]: on hFFA3, the “activity on FFA3” value is recorded as “devoid of activity”. Moreover, in the data set on human neutrophils (propionate (C3) 1 mM), the IC50 was 5.75 nM and the “inhibition of propionate-induced respiratory burst” value is on record as “completely inhibit; also recorded: full inhibition; also recorded: complete inhibition”. For the same compound, in the data set on human neutrophils (fMLP-induced), the “effect on respiratory burst induced by fMLP” value is “did not exhibit any effect”. Moreover, in data set [1], the logD at 25 h turned out to be 0.84 ± 0.01. The compound further had a solubility at 24 h in data set [2] of 176 µM (≈ 73.8 µg/mL).

The values are drawn from paper PMC10547238, “Discovery of Potent Tetrazole Free Fatty Acid Receptor 2 Antagonists” (Journal of Medicinal Chemistry, 2023).
